For three compounds, GI50 results are on record in ChEMBL document CHEMBL1144706, “Antineoplastic agents. 558. Ampelocissus sp. cancer cell growth inhibitory constituents” (2008).

Values after ≈ are worked out from the molar mass of the structure shown.

Common to all, as to type: functional
One assay concerns P388. As to the kind of experiment: Growth inhibition of mouse P388 cells.
The subject of a further assay is BXPC-3. Description: Growth inhibition of human BXPC3 cells.
Another assay deals with MCF7. Description: Growth inhibition of human MCF7 cells.
Another assay concerns SF-268. Description: Growth inhibition of human SF268 cells.
The next assay concerns NCI-H460. Description: Growth inhibition of human NCI-H460 cells.
The next assay relates to KM-20L2. As to the kind of experiment: Growth inhibition of human KM20L2 cells.
The test system of a further assay is DU-145. Description: Growth inhibition of human DU145 cells.

With `CCCCCCCCCCCC[C@@H](O)[C@H]1CC[C@H]([C@@H](C[C@H](O)CCCCCCCCCCCCC2=CC(C)OC2=O)OC(C)=O)O1` (some centres undefined), the GI50 in the assay on P388 was found to be 0.014 µg/mL (≈ 0.0215 µM); in the assay on BXPC-3, 7.3 µg/mL (≈ 11.2 µM); in the assay on MCF7 it was 0.12 µg/mL (≈ 0.184 µM); in the assay with SF-268, 11.9 µg/mL (≈ 18.3 µM); in the assay on NCI-H460 it was 0.2 µg/mL (≈ 0.307 µM); with KM-20L2, 0.034 µg/mL (≈ 0.0522 µM). The same compound gave a GI50 in the assay with DU-145 of 0.0065 µg/mL (≈ 0.00998 µM).
Turning to `Cc1c(O)c(C=O)c(O)c(C(=O)CCc2ccccc2)c1O`, the GI50 in the assay with BXPC-3 stood at 0.3 µg/mL (≈ 0.999 µM); with MCF7, 0.3 µg/mL (≈ 0.999 µM); in the assay on SF-268, 0.55 µg/mL (≈ 1.83 µM); with NCI-H460 it was 0.52 µg/mL (≈ 1.73 µM); with KM-20L2, 0.36 µg/mL (≈ 1.2 µM); in the assay on DU-145, 0.33 µg/mL (≈ 1.1 µM).
On to `CCCCCCCCCCCC[C@@H](O)[C@H]1CC[C@H]([C@@H](C[C@H](O)CCCCCCCCCC(O)CCC2=CC(C)OC2=O)OC(C)=O)O1` (some centres undefined) [UVARIBONIN], for which the GI50 in the assay on BXPC-3 turned out to be 1.3 µg/mL (≈ 1.95 µM); in the assay with MCF7 it was 0.0022 µg/mL (≈ 0.0033 µM); in the assay with SF-268, 1.4 µg/mL (≈ 2.1 µM); with NCI-H460 it was 1 µg/mL (≈ 1.5 µM); in the assay on KM-20L2, 0.0013 µg/mL (≈ 0.00195 µM); in the assay with DU-145 it was 0.0093 µg/mL (≈ 0.0139 µM).
